Assay: xn = mol fraction of the nth substance listed
Conditions: 101.3 kPa, Liquid; for viscosity: Capillary tube (Ostwald / Ubbelohde) method

CCC(=O)CC [pentan-3-one] + CCc1ccccc1
Conditions | mass density, 293.15 K [kg/m3] | mass density, 303.15 K [kg/m3] | mass density, 313.15 K [kg/m3] | speed of sound, 293.15 K [m/s] | speed of sound, 303.15 K [m/s] | speed of sound, 313.15 K [m/s] | viscosity, 293.15 K [mPa·s] | viscosity, 303.15 K [mPa·s] | viscosity, 313.15 K [mPa·s]
x1 = 0.0911 | 867 | 855.9 | 848.3 | 1328.5 | 1290.2 | 1254.5 | 0.6538 | 0.5795 | 0.5116
x1 = 0.2055 | 865.5 | 855.1 | 847 | 1319 | 1281.9 | 1246.6 | 0.625 | 0.5539 | 0.4881
x1 = 0.3176 | 863.2 | 852.8 | 844.5 | 1309.6 | 1272.2 | 1237.2 | 0.6015 | 0.5281 | 0.4642
x1 = 0.4296 | 860.1 | 849.9 | 840.8 | 1298 | 1264.5 | 1227.2 | 0.5789 | 0.5046 | 0.4429
x1 = 0.5331 | 854.8 | 845.3 | 836.6 | 1287 | 1252.3 | 1217.5 | 0.5574 | 0.486 | 0.4247
x1 = 0.6387 | 848.5 | 839.6 | 830.6 | 1275 | 1242 | 1206 | 0.534 | 0.469 | 0.411
x1 = 0.7378 | 842.5 | 833.4 | 824.5 | 1263 | 1230 | 1195 | 0.516 | 0.454 | 0.399
x1 = 0.8322 | 835 | 826.8 | 817.5 | 1251 | 1217.5 | 1184.4 | 0.4975 | 0.441 | 0.388
x1 = 0.9245 | 826 | 818 | 808 | 1240.3 | 1206.6 | 1172.5 | 0.4811 | 0.4309 | 0.38
x1 = 1 | 814.4 | 804.7 | 794.9 | 1230.7 | 1197.8 | 1159.1 | 0.4714 | 0.4231 | 0.3799
